The values that follow come from ChEMBL document CHEMBL5727076, “GDF-8 inhibitors” (2018).

The target in assay [1] is TGF-beta receptor type-1 (Homo sapiens, UniProt P36897, T204D). Put plainly: The reaction is incubated for 1 hour at room temperature and the HTRF signal was measured on an Envision plate reader (Ex: 340 nm; Em: 520 nm/495 nm). Inhibition data were calculated by comparison to no enzyme control reactions for 100% inhibition and vehicle-only reactions for 0% inhibition. The final concentration of reagents in the assay are 1 nM HIS-TGFβR1 T204D or HIS-TGFβR2 WT, 0.2 nM anti-HIS detection antibody, labeled small molecule probe (at Kd) and 0.5% DMSO. Dose response curves were generated to determine the concentration required inhibiting 50% of kinase activity (IC50). Compounds were dissolved at 10 mM in dimethylsulfoxide (DMSO) and evaluated at eleven concentrations.
Sequence of TGF-beta receptor type-1 (P36897 34-503 T204D limits assumed): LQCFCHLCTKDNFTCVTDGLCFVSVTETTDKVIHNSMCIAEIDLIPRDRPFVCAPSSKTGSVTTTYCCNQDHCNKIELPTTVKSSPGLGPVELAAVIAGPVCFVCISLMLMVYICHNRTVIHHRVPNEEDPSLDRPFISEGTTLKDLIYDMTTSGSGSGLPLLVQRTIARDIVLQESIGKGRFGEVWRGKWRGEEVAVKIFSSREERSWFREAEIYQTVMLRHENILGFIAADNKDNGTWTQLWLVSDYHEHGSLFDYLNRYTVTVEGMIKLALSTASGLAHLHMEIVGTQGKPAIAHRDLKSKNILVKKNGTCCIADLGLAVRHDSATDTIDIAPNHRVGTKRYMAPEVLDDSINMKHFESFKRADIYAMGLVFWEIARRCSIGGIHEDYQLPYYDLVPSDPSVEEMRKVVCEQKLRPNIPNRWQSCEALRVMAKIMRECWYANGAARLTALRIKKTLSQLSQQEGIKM

Assay [2] deals with TGF-beta receptor type-2 (Homo sapiens, UniProt P37173). The assay is described as follows: Compounds were dissolved at 10 mM in dimethylsulfoxide (DMSO) and evaluated at eleven concentrations.
Sequence of TGF-beta receptor type-2 (P37173 whole entry): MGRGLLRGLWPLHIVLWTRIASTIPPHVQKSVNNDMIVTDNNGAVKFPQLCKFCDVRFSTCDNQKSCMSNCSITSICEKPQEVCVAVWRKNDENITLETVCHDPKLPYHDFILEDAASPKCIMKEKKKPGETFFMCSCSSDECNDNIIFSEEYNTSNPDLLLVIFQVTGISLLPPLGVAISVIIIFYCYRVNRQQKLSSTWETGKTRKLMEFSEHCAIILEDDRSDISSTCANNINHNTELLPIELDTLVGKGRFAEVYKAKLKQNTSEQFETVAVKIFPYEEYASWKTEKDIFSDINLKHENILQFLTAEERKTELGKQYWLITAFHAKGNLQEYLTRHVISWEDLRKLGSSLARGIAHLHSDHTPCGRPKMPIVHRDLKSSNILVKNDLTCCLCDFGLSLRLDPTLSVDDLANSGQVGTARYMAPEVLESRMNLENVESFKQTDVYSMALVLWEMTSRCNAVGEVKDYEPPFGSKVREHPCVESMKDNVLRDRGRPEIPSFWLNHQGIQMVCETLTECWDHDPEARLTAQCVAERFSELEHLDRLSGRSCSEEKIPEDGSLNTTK

As for `Cc1cccc(-c2ncccc2-c2ccc3ncc(C(=O)O)n3c2)n1`, the concentration for half-maximal inhibition (IC50) (commonly the concentration that gives 50% inhibition) in assay [1] was 4 nM.

Regarding `CNC(=O)c1cnc2ccc(-c3cccnc3-c3cccc(C)n3)cn12`, the IC50 was 2 nM in assay [1] and greater than 15000 nM in assay [2].

For the compound `N#Cc1cnc2ccc(-c3cccnc3-c3cccc(C(F)(F)F)n3)cn12`, the results for the IC50 in assay [1] and in assay [2] were 11 nM and greater than 15000 nM, respectively.

Consider `Cc1cccc(-c2ncccc2-c2ccn3ncc(C(N)=O)c3n2)n1`, for which the 50% inhibitory concentration (IC50) was 6 nM in assay [1] and greater than 15000 nM in assay [2].
